In the kinase profiling compilation of Christmann-Franck et al. (2016):
Several values for one entry are separate records, joined by “and”; a condition that tells them apart may be missing. Equal values may be shown once.

What was measured:
Experiment in all cases: radiometric filter-binding kinase assay, Kinase HotSpot
Conditions in all cases: compound 0.5 µM; ATP 10 µM
MARK4 (human) = MARK4 (human) (UniProt Q96L34)
WNK3 (human) = WNK3 (human) (UniProt Q9BYP7)
BRSK1 (human) = BRSK1 (human) (UniProt Q8TDC3)
PIM1 (human) = PIM1 (human) (UniProt P11309)
PIM1 (human), sequence (P11309 whole entry, looked up): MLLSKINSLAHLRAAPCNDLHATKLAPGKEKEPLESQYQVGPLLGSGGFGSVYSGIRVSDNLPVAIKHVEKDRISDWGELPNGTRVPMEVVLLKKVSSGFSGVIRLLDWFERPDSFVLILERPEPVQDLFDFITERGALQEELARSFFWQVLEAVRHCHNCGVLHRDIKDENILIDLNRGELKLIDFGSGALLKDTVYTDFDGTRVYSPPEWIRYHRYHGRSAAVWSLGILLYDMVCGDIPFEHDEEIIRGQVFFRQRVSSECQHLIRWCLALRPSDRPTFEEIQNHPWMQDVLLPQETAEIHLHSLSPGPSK

STK3 (human) = STK3 (human) (UniProt Q13188)
EPHB3 (human) = EPHB3 (human) (UniProt P54753)
RPS6KB1 (human) = RPS6KB1 (human) (UniProt P23443)
PDGFRA (human) = PDGFRA (human) (UniProt P16234)
PRKG2 (human) = PRKG2 (human) (UniProt Q13237)
NEK1 (human) = NEK1 (human) (UniProt Q96PY6)
DDR2 (human) = DDR2 (human) (UniProt Q16832)
CSNK1A1 (human) = CSNK1A1 (human) (UniProt P48729)
PASK (human) = PASK (human) (UniProt Q96RG2)
LYN (human) = LYN (human) (UniProt P07948)
LRRK2 (human) = LRRK2 (human) (UniProt Q5S007)
IRAK1 (human) = IRAK1 (human) (UniProt P51617)
DYRK1A (human) = DYRK1A (human) (UniProt Q13627)
BLK (human) = BLK (human) (UniProt P51451)
ALK (human) = ALK (human) (UniProt Q9UM73)
CDK6 CCND3 (human) = CDK6 CCND3 (human) (UniProt P30281+Q00534)
GSK3B (human) = GSK3B (human) (UniProt P49841)
CDC42BPA (human) = CDC42BPA (human) (UniProt Q5VT25)
NTRK1 (human) = NTRK1 (human) (UniProt P04629)
FYN (human) = FYN (human) (UniProt P06241)
RPS6KA5 KD2 (human) = RPS6KA5 KD2 (human) (UniProt O75582)
MAP3K11 (human) = MAP3K11 (human) (UniProt Q16584)
BRSK2 (human) = BRSK2 (human) (UniProt Q8IWQ3)
MAPKAPK5 (human) = MAPKAPK5 (human) (UniProt Q8IW41)
LTK (human) = LTK (human) (UniProt P29376)
LTK (human), sequence (P29376 whole entry, looked up): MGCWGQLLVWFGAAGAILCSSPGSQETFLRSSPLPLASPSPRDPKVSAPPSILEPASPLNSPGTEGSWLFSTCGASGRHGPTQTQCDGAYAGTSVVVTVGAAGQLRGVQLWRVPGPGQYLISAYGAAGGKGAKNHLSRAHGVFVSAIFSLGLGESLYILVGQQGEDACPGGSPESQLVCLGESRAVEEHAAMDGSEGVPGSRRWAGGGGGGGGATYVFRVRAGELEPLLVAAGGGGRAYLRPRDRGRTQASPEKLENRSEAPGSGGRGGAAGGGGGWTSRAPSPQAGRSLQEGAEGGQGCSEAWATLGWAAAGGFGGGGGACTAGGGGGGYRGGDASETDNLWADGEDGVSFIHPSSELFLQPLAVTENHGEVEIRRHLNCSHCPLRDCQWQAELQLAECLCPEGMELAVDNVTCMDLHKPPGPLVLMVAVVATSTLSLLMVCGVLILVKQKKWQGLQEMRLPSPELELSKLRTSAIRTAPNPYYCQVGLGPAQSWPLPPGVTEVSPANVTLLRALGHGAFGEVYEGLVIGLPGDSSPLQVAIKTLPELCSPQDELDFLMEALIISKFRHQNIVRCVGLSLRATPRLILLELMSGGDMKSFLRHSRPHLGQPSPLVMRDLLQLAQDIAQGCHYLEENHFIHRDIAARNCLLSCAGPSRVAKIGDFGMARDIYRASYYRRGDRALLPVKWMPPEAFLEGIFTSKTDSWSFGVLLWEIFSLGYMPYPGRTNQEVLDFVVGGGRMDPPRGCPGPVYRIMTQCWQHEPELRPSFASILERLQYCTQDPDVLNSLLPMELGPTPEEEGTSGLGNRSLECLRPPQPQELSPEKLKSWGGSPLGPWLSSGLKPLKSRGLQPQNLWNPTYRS

AKT1 (human) = AKT1 (human) (UniProt P31749)
MAPK14 (human) = MAPK14 (human) (UniProt Q16539)
MAPK14 (human), sequence (Q16539 whole entry, looked up): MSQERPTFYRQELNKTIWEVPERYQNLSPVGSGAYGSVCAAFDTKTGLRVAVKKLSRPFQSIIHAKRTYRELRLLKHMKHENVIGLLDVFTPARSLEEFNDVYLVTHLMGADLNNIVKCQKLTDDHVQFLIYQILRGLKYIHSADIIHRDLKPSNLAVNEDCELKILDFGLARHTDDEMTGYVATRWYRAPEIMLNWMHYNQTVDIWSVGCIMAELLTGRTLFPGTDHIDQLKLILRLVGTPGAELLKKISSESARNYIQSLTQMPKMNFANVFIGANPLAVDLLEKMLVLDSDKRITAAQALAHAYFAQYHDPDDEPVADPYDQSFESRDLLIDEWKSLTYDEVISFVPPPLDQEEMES

MAP2K2 (human) = MAP2K2 (human) (UniProt P36507)
MAP2K2 (human), sequence (P36507 whole entry, looked up): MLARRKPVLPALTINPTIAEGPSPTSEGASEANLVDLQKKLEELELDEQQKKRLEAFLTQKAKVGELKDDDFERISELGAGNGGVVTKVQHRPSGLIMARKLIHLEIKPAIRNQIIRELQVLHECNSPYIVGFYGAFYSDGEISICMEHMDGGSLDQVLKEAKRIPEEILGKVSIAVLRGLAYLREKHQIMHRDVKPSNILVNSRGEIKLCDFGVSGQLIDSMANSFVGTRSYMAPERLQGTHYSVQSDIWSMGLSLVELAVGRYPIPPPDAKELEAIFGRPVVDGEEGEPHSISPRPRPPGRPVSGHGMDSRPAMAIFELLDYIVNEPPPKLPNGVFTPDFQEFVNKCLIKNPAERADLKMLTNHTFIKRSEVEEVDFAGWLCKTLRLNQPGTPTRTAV

EPHB2 (human) = EPHB2 (human) (UniProt P29323)
MAP3K10 (human) = MAP3K10 (human) (UniProt Q02779)
PKN1 (human) = PKN1 (human) (UniProt Q16512)
FGFR4 (human) = FGFR4 (human) (UniProt P22455)
PRKD3 (human) = PRKD3 (human) (UniProt O94806)
ACVRL1 (human) = ACVRL1 (human) (UniProt P37023)
PDPK1 (human) = PDPK1 (human) (UniProt O15530)
PDPK1 (human), sequence (O15530 whole entry, looked up): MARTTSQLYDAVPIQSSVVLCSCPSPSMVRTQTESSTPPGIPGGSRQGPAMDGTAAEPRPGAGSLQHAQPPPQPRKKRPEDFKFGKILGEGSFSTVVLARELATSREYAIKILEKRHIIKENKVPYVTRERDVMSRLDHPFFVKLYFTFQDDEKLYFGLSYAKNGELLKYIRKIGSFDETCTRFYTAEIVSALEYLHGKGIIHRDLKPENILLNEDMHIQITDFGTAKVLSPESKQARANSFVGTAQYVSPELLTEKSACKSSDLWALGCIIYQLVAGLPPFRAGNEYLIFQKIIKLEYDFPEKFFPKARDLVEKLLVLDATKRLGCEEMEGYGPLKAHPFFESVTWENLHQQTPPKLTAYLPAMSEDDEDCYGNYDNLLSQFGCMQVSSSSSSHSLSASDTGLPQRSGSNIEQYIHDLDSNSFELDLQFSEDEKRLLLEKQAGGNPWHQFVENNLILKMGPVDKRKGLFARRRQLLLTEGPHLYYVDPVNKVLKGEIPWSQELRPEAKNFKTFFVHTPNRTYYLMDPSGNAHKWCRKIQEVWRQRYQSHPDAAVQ

MAP4K4 (human) = MAP4K4 (human) (UniProt O95819)
CDK3 CCNE1 (human) = CDK3 CCNE1 (human) (UniProt Q00526+P24864)
EPHA1 (human) = EPHA1 (human) (UniProt P21709)

WNK3 (human), sequence (Q9BYP7 whole entry, looked up): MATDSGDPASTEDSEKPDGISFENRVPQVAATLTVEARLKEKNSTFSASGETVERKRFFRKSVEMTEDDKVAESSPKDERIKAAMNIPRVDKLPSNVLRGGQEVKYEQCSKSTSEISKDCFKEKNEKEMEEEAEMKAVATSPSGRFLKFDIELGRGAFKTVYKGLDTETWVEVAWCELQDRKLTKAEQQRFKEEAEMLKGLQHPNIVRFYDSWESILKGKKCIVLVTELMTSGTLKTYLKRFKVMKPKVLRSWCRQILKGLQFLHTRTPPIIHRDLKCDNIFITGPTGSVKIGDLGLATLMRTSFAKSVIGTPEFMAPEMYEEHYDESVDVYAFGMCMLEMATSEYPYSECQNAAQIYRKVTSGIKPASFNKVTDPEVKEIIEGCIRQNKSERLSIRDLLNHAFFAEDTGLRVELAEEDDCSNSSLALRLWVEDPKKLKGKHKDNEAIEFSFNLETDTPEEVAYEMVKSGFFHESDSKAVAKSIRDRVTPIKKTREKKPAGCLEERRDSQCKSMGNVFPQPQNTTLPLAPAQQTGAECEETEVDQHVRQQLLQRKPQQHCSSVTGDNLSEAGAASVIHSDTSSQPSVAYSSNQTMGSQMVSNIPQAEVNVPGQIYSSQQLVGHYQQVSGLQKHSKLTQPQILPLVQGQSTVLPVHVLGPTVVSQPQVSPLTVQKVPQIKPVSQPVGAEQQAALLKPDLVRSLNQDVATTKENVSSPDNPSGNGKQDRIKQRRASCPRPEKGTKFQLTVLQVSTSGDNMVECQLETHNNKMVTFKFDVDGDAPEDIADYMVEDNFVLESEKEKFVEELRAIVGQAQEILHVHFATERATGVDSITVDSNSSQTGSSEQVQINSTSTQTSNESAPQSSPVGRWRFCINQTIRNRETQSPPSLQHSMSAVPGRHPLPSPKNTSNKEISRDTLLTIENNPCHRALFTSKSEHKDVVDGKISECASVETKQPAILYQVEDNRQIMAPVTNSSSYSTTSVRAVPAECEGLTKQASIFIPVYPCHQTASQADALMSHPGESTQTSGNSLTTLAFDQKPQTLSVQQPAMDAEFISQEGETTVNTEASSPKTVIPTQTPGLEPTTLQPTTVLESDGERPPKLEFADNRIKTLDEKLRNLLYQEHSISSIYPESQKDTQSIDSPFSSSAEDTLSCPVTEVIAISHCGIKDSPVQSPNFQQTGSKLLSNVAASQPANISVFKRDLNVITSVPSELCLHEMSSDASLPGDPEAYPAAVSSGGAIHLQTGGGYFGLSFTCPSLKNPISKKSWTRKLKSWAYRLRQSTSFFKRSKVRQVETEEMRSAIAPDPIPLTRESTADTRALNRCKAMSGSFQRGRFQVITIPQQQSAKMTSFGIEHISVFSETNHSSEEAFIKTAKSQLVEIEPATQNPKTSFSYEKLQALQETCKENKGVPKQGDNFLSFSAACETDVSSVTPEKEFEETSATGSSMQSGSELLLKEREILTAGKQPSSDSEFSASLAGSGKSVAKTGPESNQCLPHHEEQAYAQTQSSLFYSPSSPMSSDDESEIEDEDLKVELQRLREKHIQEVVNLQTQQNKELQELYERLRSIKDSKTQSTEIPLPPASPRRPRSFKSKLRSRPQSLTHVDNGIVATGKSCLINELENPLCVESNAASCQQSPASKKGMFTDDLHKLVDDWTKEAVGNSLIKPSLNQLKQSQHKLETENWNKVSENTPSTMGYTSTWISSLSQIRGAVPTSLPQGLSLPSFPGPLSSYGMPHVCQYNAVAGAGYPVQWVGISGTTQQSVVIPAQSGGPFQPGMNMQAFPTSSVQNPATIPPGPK
MARK4 (human), sequence (Q96L34 whole entry, looked up): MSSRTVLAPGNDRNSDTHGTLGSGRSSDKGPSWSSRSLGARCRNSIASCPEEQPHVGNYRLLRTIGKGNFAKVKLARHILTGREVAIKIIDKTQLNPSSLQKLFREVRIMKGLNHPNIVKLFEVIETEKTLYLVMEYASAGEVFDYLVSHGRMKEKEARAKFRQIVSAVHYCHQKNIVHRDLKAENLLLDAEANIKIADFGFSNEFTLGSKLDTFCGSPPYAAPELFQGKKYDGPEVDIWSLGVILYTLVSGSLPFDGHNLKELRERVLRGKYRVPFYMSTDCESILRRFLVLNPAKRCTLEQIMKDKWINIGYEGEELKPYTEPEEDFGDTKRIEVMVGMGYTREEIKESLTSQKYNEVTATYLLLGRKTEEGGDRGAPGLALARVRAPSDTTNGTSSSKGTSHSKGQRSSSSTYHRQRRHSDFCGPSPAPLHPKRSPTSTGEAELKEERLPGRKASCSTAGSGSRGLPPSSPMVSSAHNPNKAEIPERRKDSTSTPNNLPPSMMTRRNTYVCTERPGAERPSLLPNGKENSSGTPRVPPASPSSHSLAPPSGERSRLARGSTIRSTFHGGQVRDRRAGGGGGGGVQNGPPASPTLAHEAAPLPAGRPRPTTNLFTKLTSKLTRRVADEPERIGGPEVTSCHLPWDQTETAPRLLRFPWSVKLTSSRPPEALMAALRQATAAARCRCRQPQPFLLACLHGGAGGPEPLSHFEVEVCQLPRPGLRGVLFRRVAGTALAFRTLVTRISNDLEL

O=C1NC(=O)C(c2c[nH]c3ccccc23)=C1c1c[nH]c2ccccc12
residual activity (MARK4 (human)): 95.3%
residual activity (WNK3 (human)): 98.3%
residual activity (BRSK1 (human)): 84.4%
residual activity (PIM1 (human)): 17.2%
residual activity (STK3 (human)): 64.7%
residual activity (EPHB3 (human)): 94.3%
residual activity (RPS6KB1 (human)): 75.6%
residual activity (PDGFRA (human)): 90.6%
residual activity (PRKG2 (human)): 52.6%
residual activity (NEK1 (human)): 93.8%
residual activity (DDR2 (human)): 101%
residual activity (CSNK1A1 (human)): 98.4%
residual activity (PASK (human)): 90.8%
residual activity (LYN (human)): 102% and 104%
residual activity (LRRK2 (human)): 77.5%
residual activity (IRAK1 (human)): 89.6%
residual activity (DYRK1A (human)): 80.8%
residual activity (BLK (human)): 93.7%
residual activity (ALK (human)): 95.7%
residual activity (CDK6 CCND3 (human)): 103%
residual activity (GSK3B (human)): 28.4%
residual activity (CDC42BPA (human)): 89.9%
residual activity (NTRK1 (human)): 92%
residual activity (FYN (human)): 101%
residual activity (RPS6KA5 KD2 (human)): 62%
residual activity (MAP3K11 (human)): 68.7%
residual activity (BRSK2 (human)): 86%
residual activity (MAPKAPK5 (human)): 119%
residual activity (LTK (human)): 85.1%
residual activity (AKT1 (human)): 87.7%
residual activity (MAPK14 (human)): 109%
residual activity (MAP2K2 (human)): 82.7%
residual activity (EPHB2 (human)): 96.9%
residual activity (MAP3K10 (human)): 79%
residual activity (PKN1 (human)): 84.6%
residual activity (FGFR4 (human)): 87.8%
residual activity (PRKD3 (human)): 88.4%
residual activity (ACVRL1 (human)): 96.5%
residual activity (PDPK1 (human)): 96.7%
residual activity (MAP4K4 (human)): 58.5%
residual activity (CDK3 CCNE1 (human)): 91.5%
residual activity (EPHA1 (human)): 92.1%

COc1cc2ncc(-c3ccccc3)nc2cc1OC
residual activity (MARK4 (human)): 85.3%
residual activity (WNK3 (human)): 97.5%
residual activity (BRSK1 (human)): 102%
residual activity (PIM1 (human)): 95.9%
residual activity (STK3 (human)): 95.7%
residual activity (EPHB3 (human)): 88.6%
residual activity (RPS6KB1 (human)): 89%
residual activity (PDGFRA (human)): 83.1%
residual activity (PRKG2 (human)): 83.6%
residual activity (NEK1 (human)): 95.9%
residual activity (DDR2 (human)): 96.9%
residual activity (CSNK1A1 (human)): 100%
residual activity (PASK (human)): 98.9%
residual activity (LYN (human)): 90.4% and 96.9%
residual activity (LRRK2 (human)): 84.9%
residual activity (IRAK1 (human)): 98.4%
residual activity (DYRK1A (human)): 97.2%
residual activity (BLK (human)): 103%
residual activity (ALK (human)): 94.1%
residual activity (CDK6 CCND3 (human)): 93.7%
residual activity (GSK3B (human)): 113%
residual activity (CDC42BPA (human)): 85.4%
residual activity (NTRK1 (human)): 93.2%
residual activity (FYN (human)): 100%
residual activity (RPS6KA5 KD2 (human)): 91.8%
residual activity (MAP3K11 (human)): 86.8%
residual activity (BRSK2 (human)): 103%
residual activity (MAPKAPK5 (human)): 88.1%
residual activity (LTK (human)): 97.9%
residual activity (AKT1 (human)): 99.2%
residual activity (MAPK14 (human)): 122%
residual activity (MAP2K2 (human)): 102%
residual activity (MAP3K10 (human)): 105%
residual activity (PKN1 (human)): 104%
residual activity (FGFR4 (human)): 78.7%
residual activity (PRKD3 (human)): 91.1%
residual activity (ACVRL1 (human)): 95.8%
residual activity (PDPK1 (human)): 92.6%
residual activity (MAP4K4 (human)): 62.1%
residual activity (CDK3 CCNE1 (human)): 83.8%
residual activity (EPHA1 (human)): 95.8%

O=C1Nc2ccccc2/C1=C1/Nc2ccccc2/C1=N\OCCC(O)CO (centres undefined)
residual activity (MARK4 (human)): 43.5%
residual activity (WNK3 (human)): 79.7%
residual activity (BRSK1 (human)): 39.5%
residual activity (PIM1 (human)): 59.7%
residual activity (STK3 (human)): 4.81%
residual activity (RPS6KB1 (human)): 47.8%
residual activity (PDGFRA (human)): 76.7%
residual activity (PRKG2 (human)): 28.1%
residual activity (NEK1 (human)): 92.9%
residual activity (DDR2 (human)): 86.1%
residual activity (CSNK1A1 (human)): 84.8%
residual activity (PASK (human)): 89.8%
residual activity (LYN (human)): 25.4% and 45.5%
residual activity (LRRK2 (human)): 81.2%
residual activity (IRAK1 (human)): 34.5%
residual activity (DYRK1A (human)): 82.8%
residual activity (BLK (human)): 39.1%
residual activity (ALK (human)): 38.1%
residual activity (CDK6 CCND3 (human)): 10.2%
residual activity (GSK3B (human)): 12.6%
residual activity (CDC42BPA (human)): 88.6%
residual activity (NTRK1 (human)): 3.84%
residual activity (FYN (human)): 13%
residual activity (RPS6KA5 KD2 (human)): 37.5%
residual activity (MAP3K11 (human)): 10.5%
residual activity (BRSK2 (human)): 33.3%
residual activity (MAPKAPK5 (human)): 86.8%
residual activity (LTK (human)): 34.7%
residual activity (AKT1 (human)): 95.6%
residual activity (MAPK14 (human)): 101%
residual activity (MAP2K2 (human)): 86.5%
residual activity (EPHB2 (human)): 75%
residual activity (MAP3K10 (human)): 86.9%
residual activity (PKN1 (human)): 49.9%
residual activity (FGFR4 (human)): 65.7%
residual activity (PRKD3 (human)): 68.1%
residual activity (ACVRL1 (human)): 103%
residual activity (PDPK1 (human)): 83.3%
residual activity (MAP4K4 (human)): 11.6%
residual activity (CDK3 CCNE1 (human)): 65.2%
residual activity (EPHA1 (human)): 82.2%
